{"source": "paper PMC8222713", "about": "“Variation of Two S3b Residues in KV4.1–4.3 Channels Underlies Their Different Modulations by Spider Toxin κ-LhTx-1” (Frontiers in Pharmacology, 2021)", "key": {"KV4.2/D281K mutant": {"tested_on": "KV4.2/D281K mutant", "test": "Whole-cell patch clamp, KV4.2/D281K (with hKChIP1) in CHO-K1 cells", "assay_type": "cell-based, rat", "protocol": "(§1) The cDNA of hKV1.1, hKV1.3, rKV1.4, hKV1.5, rKV2.1, hKV3.1–3.4, mKV4.1, rKV4.2, and rKV4.3 were subcloned in the eukaryotic expression vector pCDNA3.1 or pCMV-blank. Channel mutants were made by a site-directed mutation method. Briefly, a pair of oppositely directed primers with 15 bp overlap at their 5′ ends and the designed mutation site were used to amplify the parental channel plasmid, then the PCR mix was treated with DpnI to remove the template. 10 μL digestion mix was directly used to transform 100 μL DH5α chemical competent cells. The correct mutation made by this procedure was finally confirmed by DNA sequencing. CHO-K1 cells (ATCC® CCL-61™) were grown in DMEM-F12 mixed medium (1:1) supplemented with 10% FBS and maintained in standard conditions (saturated humidity, 37°C, 5% CO2). Channel plasmid was co-transfected with pEGFP-N1 (encodes the green fluoresence protein) into CHO-K1 cells using lipofectamine 2000 following the manufacturer’s instructions. 4–6 h after transfection, cells were seeded onto poly-lysine (PLL) coated coverslips, and 24–36 h later, transfected cells were ready for patch-clamp analysis. It should be note that KV4.2 and its mutants were also co-expressed with hKChIP1 to promote their functional expressions.\n(§2) Whole-cell patch clamp recording was performed in an electrophysiology platform equipped with MultiClamp 700B amplifier and Axon Digidata 1550 AD/DA convertor (Axon Instruments, Irvine, CA, United States). Data were acquired using the pClamp software (Axon Instruments, Irvine, CA, United States). All experiments were performed at room temperature. The bath solution contains (in mM): 140 NaCl, 5 KCl, 1 MgCl2, 2 CaCl2, 10 glucose, and 10 HEPES (pH = 7.3). The pipette solution contains (in mM): 140 KCl, 2.5 MgCl2, 11 EGTA, and 10 HEPES (pH = 7.3). Series resistance was kept below 10 MΩ and compensated to 80%. The concentration–response curves were fitted by a Hill logistic equation to estimate the potency (IC50) of the toxin. The whole cell conductance (G) at each depolarizing voltage (V) was determined using the equation: G = I/(V−Vrev), where I and Vrev represents the current amplitude and the reversal potential, respectively. In the present study, Vrev for K^+ current is determined to be −85.61 mV using the Nernst equation. G-V curve was obtained by plotting the normalized G as a function of V and fitted by the Boltzmann equation: y = 1/{1 + exp [(Va−V)/K]}, in which Va, V, and K represents half-maximum activation voltage, test voltage and slope factor, respectively. The steady-state fast inactivation of KV4 channels was measured using a classical two-pulses protocol: cell was held at −120 mV, and a train of conditional voltages (−120–40 mV, in 10 mV increment, 1,000 ms) were applied to induce channel inactivation, followed by a +60 mV test pulse (300 ms) to assess the proportion of non-inactivated channels; the sweep interval was set to 10 s. Currents at the test pulse (I) were normalized to the maximum value (Imax) and plotted as a function of the conditional voltage (V), the curve was fitted by the Boltzmann equation: I/Imax = A + (1−A)/{1 + exp [(V−Vh)/K]}, where Vh is the half-maximum inactivation voltage, A represents the minimum channel availability, and K is the slope factor. Gating currents of KV4.1–4.3 channels were measured as previously reported ([Tilley et al., 2019]). Briefly, the ionic pore currents were abolished by replacing K^+ with NMDG^+ in the pipette solution, and 10 µM Cs^+ was present in the bath solution to occupy the selectivity filter of KV channels to prevent decay of the gating currents during recording.\n(§3) Data were presented as MEAN ± SEM, n represents the number of separate experimental cells. Data were analyzed using the software Clampfit 10.5 (Axon Instruments, Irvine, CA, United States), Graphpad Prism 5.01 (GraphPad Software, La Jolla, CA, United States) and Excel 2010 (Microsoft Corporation, Redmond, WA, United States). […]"}, "[1]": {"tested_on": "KV4.3-TN/PK (KV4.3/277PK, T277P/N278K double mutant)", "test": "Whole-cell patch clamp, KV4.3-TN/PK (KV4.3/277PK) in CHO-K1 cells", "assay_type": "cell-based, rat", "protocol": "as §1, §2, §3"}, "KV1.1 channel (hKV1.1)": {"tested_on": "KV1.1 channel (hKV1.1)", "test": "Whole-cell patch clamp selectivity, KV1.1", "assay_type": "cell-based, human", "conditions": "KV1.1, 10 µM, n = 5", "protocol": "The cDNA of hKV1.1, hKV1.3, rKV1.4, hKV1.5, rKV2.1, hKV3.1–3.4, mKV4.1, rKV4.2, and rKV4.3 were subcloned in the eukaryotic expression vector pCDNA3.1 or pCMV-blank. Channel mutants were made by a site-directed mutation method. Briefly, a pair of oppositely directed primers with 15 bp overlap at their 5′ ends and the designed mutation site were used to amplify the parental channel plasmid, then the PCR mix was treated with DpnI to remove the template. 10 μL digestion mix was directly used to transform 100 μL DH5α chemical competent cells. The correct mutation made by this procedure was finally confirmed by DNA sequencing. […] 4–6 h after transfection, cells were seeded onto poly-lysine (PLL) coated coverslips, and 24–36 h later, transfected cells were ready for patch-clamp analysis. […]\nWhole-cell patch clamp recording was performed in an electrophysiology platform equipped with MultiClamp 700B amplifier and Axon Digidata 1550 AD/DA convertor (Axon Instruments, Irvine, CA, United States). […] The whole cell conductance (G) at each depolarizing voltage (V) was determined using the equation: G = I/(V−Vrev), where I and Vrev represents the current amplitude and the reversal potential, respectively. In the present study, Vrev for K^+ current is determined to be −85.61 mV using the Nernst equation. […] Gating currents of KV4.1–4.3 channels were measured as previously reported ([Tilley et al., 2019]). […]"}, "[2]": {"conditions": "10 μM κ-LhTx-1, G-V, mean ± SEM, n = 6"}, "[3]": {"conditions": "10 μM κ-LhTx-1, two-pulse protocol, mean ± SEM, n = 6"}, "[4]": {"conditions": "10 μM κ-LhTx-1, KV4.3-TN/PK, G-V, mean ± SEM, n = 5"}, "[5]": {"conditions": "10 μM κ-LhTx-1, KV4.3-TN/PK, two-pulse protocol, mean ± SEM, n = 5"}}, "note": "Where a SMILES comes first, the peptide text is derived from it. Bridges are numbered along the chain shown (N, C = ends)."}
{"molecule": "CC[C@H](C)[C@@H]1NC(=O)[C@H](CCC(N)=O)NC(=O)[C@@H]2CSSC[C@@H]3NC(=O)[C@H](CC(C)C)NC(=O)[C@H](CC(N)=O)NC(=O)[C@H](CCSC)NC(=O)[C@H](Cc4c[nH]c5ccccc45)NC(=O)[C@H](CO)NC(=O)[C@H](C)NC(=O)[C@@H](NC(=O)[C@H](CCC(=O)O)NC(=O)[C@H](CCC(N)=O)NC(=O)[C@H](C)NC(=O)[C@H](CC(=O)O)NC(=O)[C@@H](N)CCC(=O)O)CSSC[C@H](NC(=O)[C@H](CSSC[C@@H](C(=O)N[C@@H](CCCCN)C(=O)N[C@@H](Cc4ccc(O)cc4)C(=O)N[C@@H](CCCCN)C(=O)N[C@@H](CC(C)C)C(N)=O)NC(=O)[C@H](Cc4c[nH]c5ccccc45)NC1=O)NC(=O)[C@H](CCCCN)NC(=O)[C@H](CCCCN)NC(=O)[C@H](CCC(=O)O)NC(=O)CNC3=O)C(=O)N[C@@H](CCC(=O)O)C(=O)NCC(=O)N[C@@H](Cc1ccc(O)cc1)C(=O)N[C@@H](C(C)C)C(=O)N2", "note": "[κ-LhTx-1] (H-EDAQECASWMNLCGEKKCCEGYVCQIWCKYKL-NH2; disulfide 6-19, 13-24, 18-28 (inferred); N-terminus and C-terminus assumed)", "values": [{"measurement": "Va (steady-state activation)", "setting": "KV4.2/D281K mutant; [2]", "result": "61.96 ± 1.96", "unit": "mV"}, {"measurement": "k, slope factor (steady-state activation)", "setting": "KV4.2/D281K mutant; [2]", "result": "18.73 ± 0.70", "unit": "mV"}, {"measurement": "Vh (steady-state inactivation)", "setting": "KV4.2/D281K mutant; [3]", "result": "-27.43 ± 2.53", "unit": "mV"}, {"measurement": "k, slope factor (steady-state inactivation)", "setting": "KV4.2/D281K mutant; [3]", "result": "15.24 ± 1.42", "unit": "mV"}, {"measurement": "voltage-dependence of inhibition vs parental KV4.2", "setting": "KV4.2/D281K mutant; 10 μM, still greater than in KV4.1", "result": "much less voltage-dependence"}, {"measurement": "∆Va (steady-state activation)", "setting": "KV4.2/D281K mutant; Va shift by 10 μM κ-LhTx-1 vs control, mean ± SEM", "result": "68.10 ± 2.92", "unit": "mV"}, {"measurement": "∆Vh (steady-state inactivation)", "setting": "KV4.2/D281K mutant; Vh shift by 10 μM κ-LhTx-1 vs control, mean ± SEM", "result": "33.23 ± 2.95", "unit": "mV"}, {"measurement": "Va (steady-state activation)", "setting": "[1]; [4]", "result": "81.96 ± 2.27", "unit": "mV"}, {"measurement": "k, slope factor (steady-state activation)", "setting": "[1]; [4]", "result": "15.09 ± 1.14", "unit": "mV"}, {"measurement": "Vh (steady-state inactivation)", "setting": "[1]; [5]", "result": "-25.43 ± 2.92", "unit": "mV"}, {"measurement": "k, slope factor (steady-state inactivation)", "setting": "[1]; [5]", "result": "15.31 ± 2.02", "unit": "mV"}, {"measurement": "∆Va and inhi%(min) vs KV4.1", "setting": "[1]; KV4.3/277PK, 10 μM", "result": "not significantly different from those in KV4.1"}, {"measurement": "∆Va (steady-state activation)", "setting": "[1]; Va shift by 10 μM κ-LhTx-1 vs control, KV4.3-TN/PK, mean ± SEM", "result": "87.43 ± 2.99", "unit": "mV"}, {"measurement": "∆Vh (steady-state inactivation)", "setting": "[1]; Vh shift by 10 μM κ-LhTx-1 vs control, KV4.3-TN/PK, mean ± SEM", "result": "26.29 ± 3.52", "unit": "mV"}, {"measurement": "effect on currents", "setting": "KV1.1 channel (hKV1.1)", "result": "did not remarkably affect the currents"}]}
